This is an account of results in paper PMC7857480 (The Journal of Biological Chemistry, 2020).

Structures are written as SMILES.

The target of this assay is FigA (Francisella tularensis, UniProt Q15EH0). Particulars: FigA alone; citrate, 2.25 mM ATP, 15 mM MgCl2, 50 mM HEPES pH 7.4, RT 2 h.
Sequence of FigA (Q15EH0 1-639): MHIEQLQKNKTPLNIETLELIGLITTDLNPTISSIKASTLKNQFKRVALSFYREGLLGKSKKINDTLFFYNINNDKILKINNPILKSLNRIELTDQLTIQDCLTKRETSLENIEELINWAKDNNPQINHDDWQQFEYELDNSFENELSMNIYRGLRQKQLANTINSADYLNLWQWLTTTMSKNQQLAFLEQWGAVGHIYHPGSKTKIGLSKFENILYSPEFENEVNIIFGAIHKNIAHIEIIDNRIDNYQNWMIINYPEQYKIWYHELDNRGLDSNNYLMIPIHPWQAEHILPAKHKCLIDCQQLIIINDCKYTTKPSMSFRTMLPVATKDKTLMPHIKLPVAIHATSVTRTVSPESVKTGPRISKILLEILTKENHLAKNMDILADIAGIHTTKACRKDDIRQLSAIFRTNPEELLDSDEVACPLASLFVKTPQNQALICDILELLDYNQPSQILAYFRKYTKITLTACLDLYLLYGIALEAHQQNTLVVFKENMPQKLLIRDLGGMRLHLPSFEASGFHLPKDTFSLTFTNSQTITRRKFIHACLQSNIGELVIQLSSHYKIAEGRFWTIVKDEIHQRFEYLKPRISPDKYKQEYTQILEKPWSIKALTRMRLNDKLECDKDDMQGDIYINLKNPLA

Regarding `NCCC[C@H](N)C(=O)O` [L-ornithine], the “in vitro assay, LC-MS of N-citrylornithine (m/z 307.1)” value is “FigA alone assayed with citrate and L-ornithine assay were analyzed by LC-MS”.
